# Source: patent publication US8748423B2, “Compositions and methods for the prevention and treatment of cancer” (Kinex Pharmaceuticals, LLC, priority 2010, dated 2014)
# Like-named read-outs stand apart in the source and are kept apart here.
# Tests used:
# LN-18 = experiment: brain tumor cell line growth inhibition, LN-18; type: cell-based; conditions: Homo sapiens; LN-18, glioblastoma; glioma
# Description: (§1) These GI50s were determined using standard tumor growth inhibition assays.
# Daoy = experiment: brain tumor cell line growth inhibition, Daoy; type: cell-based; conditions: Homo sapiens, desmoplastic cerebellar medulloblastoma
# Description: as §1
# [1] = plasma and brain exposure after single oral dose; type: in vivo, Male CD-1 Mice; conditions: for Brain Concentrations, Group A, B, C / Plasma Concentrations, Group A, B, C / concentration at 0 h: 0 hr; for Kp: brain and plasma, read-out: AUClast Brain/AUClast Plasma Ratio
# Description: […] The concentration of Compound 76 was measured in plasma and in brain tissue homogenates.
# Plasma concentrations were measured in mice after oral administration. All doses were formulated in purified water. Four groups of male CD-1 mice were dosed after an overnight fast and fed 4 hours post-dose. Dosing was as follows:
# Protein was precipitated with 0.25 mL acetonitrile for plasma, 0.25 mL for brain. After centrifugation, supernatant was directly injected into an LC/MS system. The limit of quantitation was 1 ng/mL using a 50 μL aliquot for plasma and a […] aliquot for brain. The standard curve was 1 to 1,000 ng/mL for both plasma and brain.
# HPLC conditions were as follows:
# • HPLC System: Shimadzu SCL-10 System • Analytical Column: Aquasil C18 5 μm 100×2 mm column. • Column Temperature: Ambient temperature • Autosampler Temperature: Ambient temperature • Mobile Phase • A) 10 mM Ammonium formate in water (pH 4). • B) Acetonitrile. • Flow Rate: 0.6 mL/min • Injection Volume: 2 μL
# U87 = experiment: brain tumor cell line growth inhibition, U87; type: cell-based; conditions: Homo sapiens, U-87 MG; U87, glioblastoma; astrocytoma
# Description: as §1
# [2] = PO 10 mg/kg (Group 3), single values
# [3] = PO 50 mg/kg (Group 4), single values
# [4] = male, CD-1, mouse, brain, po, 10 mg/kg, PO 10 mg/kg (Group 3), BLQ = 0, read-out: Brain Concentrations, Mean
# [5] = male, CD-1, mouse, brain, po, 50 mg/kg, PO 50 mg/kg (Group 4), read-out: Brain Concentrations, Mean
# [6] = male, CD-1, mouse, plasma, po, 10 mg/kg, PO 10 mg/kg (Group 3), read-out: Plasma Concentrations, Mean
# [7] = male, CD-1, mouse, plasma, po, 50 mg/kg, PO 50 mg/kg (Group 4), read-out: Plasma Concentrations, Mean
# [8] = male, CD-1, mouse, po, Brain, single dose of 50 mg/kg (Group 4)
# [9] = male, CD-1, mouse, po, Plasma, single dose of 50 mg/kg (Group 4)
# [10] = male, CD-1, mouse, Brain, single oral dose of 10 mg/kg
# [11] = male, CD-1, mouse, Plasma, single oral dose of 10 mg/kg
compound,measurement,setting,value
O=C(Cc1ccc(-c2ccc(N3CCOCC3)cc2)cn1)NCc1cccc(F)c1 [Compound 76],IC50,LN-18,2.9 nM
same,IC50,Daoy,54.9 nM
same,AUClast,"[1]; Brain, single dose of 50 mg/kg (Group 4)",3338 ng·h/g
same,AUClast,"[1]; Brain, single oral dose of 10 mg/kg",656 ng·h/g
same,"Brain Concentrations, Group A, B, C",[1]; [2],BLQ (Below Limit of Quantitation (1 ng/mL))
same,"Plasma Concentrations, Group A, B, C",[1]; [2],BLQ (Below Limit of Quantitation (1 ng/mL))
same,"Brain Concentrations, Group A, B, C",[1]; [3],BLQ (Below Limit of Quantitation (1 ng/mL))
same,"Plasma Concentrations, Group A, B, C",[1]; [3],BLQ (Below Limit of Quantitation (1 ng/mL))
same,Kp,"[1]; male, CD-1, mouse, oral 10 mg/kg",0.76
same,Kp,"[1]; male, CD-1, mouse, oral 50 mg/kg",0.61
same,concentration at 0 h,[1]; [4],0 ng/g
same,concentration at 0.5 h,"[1]; male, CD-1, mouse, brain, po, 10 mg/kg, PO 10 mg/kg (Group 3), 0.5 hr, read-out: Brain Concentrations, Mean",99.8 ng/g
same,concentration at 1 h,"[1]; male, CD-1, mouse, brain, po, 10 mg/kg, PO 10 mg/kg (Group 3), 1 hr, read-out: Brain Concentrations, Mean",279 ng/g
same,concentration at 1 h,"[1]; male, CD-1, mouse, brain, po, 10 mg/kg, PO 10 mg/kg (Group 3), 1 hr, single values, read-out: Brain Concentrations, Group A, B, C",228 ng/g
same,concentration at 2 h,"[1]; male, CD-1, mouse, brain, po, 10 mg/kg, PO 10 mg/kg (Group 3), read-out: Brain Concentrations, Mean",175 ng/g
same,concentration at 5 h,[1]; [4],31.8 ng/g
same,concentration at 5 h,"[1]; male, CD-1, mouse, brain, po, 10 mg/kg, PO 10 mg/kg (Group 3), single values, read-out: Brain Concentrations, Group A, B, C",47.5 ng/g
same,concentration at 0 h,"[1]; male, CD-1, mouse, brain, po, 50 mg/kg, PO 50 mg/kg (Group 4), BLQ = 0, read-out: Brain Concentrations, Mean",0 ng/g
same,concentration at 0.5 hr,"[1]; male, CD-1, mouse, brain, po, 50 mg/kg, PO 50 mg/kg (Group 4), 0.5 hr, read-out: Brain Concentrations, Mean",1380 ng/g
same,concentration at 1 hr,"[1]; male, CD-1, mouse, brain, po, 50 mg/kg, PO 50 mg/kg (Group 4), 1 hr, read-out: Brain Concentrations, Mean",1100 ng/g
same,concentration at 2 h,[1]; [5],758 ng/g
same,concentration at 5 h,[1]; [5],207 ng/g
same,concentration at 0 h,"[1]; male, CD-1, mouse, plasma, po, 10 mg/kg, PO 10 mg/kg (Group 3), BLQ = 0, read-out: Plasma Concentrations, Mean",0 ng/mL
same,concentration at 0.5 h,"[1]; male, CD-1, mouse, plasma, po, 10 mg/kg, PO 10 mg/kg (Group 3), 0.5 hr, read-out: Plasma Concentrations, Mean",148 ng/mL
same,concentration at 1 h,"[1]; male, CD-1, mouse, plasma, po, 10 mg/kg, PO 10 mg/kg (Group 3), 1 hr, read-out: Plasma Concentrations, Mean",426 ng/mL
same,concentration at 2 h,[1]; [6],205 ng/mL
same,concentration at 5 h,[1]; [6],40 ng/mL
same,concentration at 0 h,"[1]; male, CD-1, mouse, plasma, po, 50 mg/kg, PO 50 mg/kg (Group 4), BLQ = 0, read-out: Plasma Concentrations, Mean",0 ng/mL
same,concentration at 0.5 h,"[1]; male, CD-1, mouse, plasma, po, 50 mg/kg, PO 50 mg/kg (Group 4), 0.5 hr, read-out: Plasma Concentrations, Mean",1800 ng/mL
same,concentration at 0.5 h,"[1]; male, CD-1, mouse, plasma, po, 50 mg/kg, PO 50 mg/kg (Group 4), 0.5 hr, single values, read-out: Plasma Concentrations, Group A, B, C",1490 ng/mL
same,concentration at 1 h,"[1]; male, CD-1, mouse, plasma, po, 50 mg/kg, PO 50 mg/kg (Group 4), 1 hr, read-out: Plasma Concentrations, Mean",2140 ng/mL
same,concentration at 2 h,[1]; [7],1300 ng/mL
same,concentration at 5 h,[1]; [7],230 ng/mL
same,Cmax,[1]; [8],1380 ng/g
same,Tmax,[1]; [8],0.5 h
same,AUC(0-t),[1]; [9],5440 ng·h/mL
same,Cmax,[1]; [9],2140 ng/mL
same,Tmax,[1]; [9],1 h
same,Cmax,[1]; [10],279 ng/g
same,Tmax,[1]; [10],1 h
same,AUC(0-t),[1]; [11],863 ng·h/mL
same,Cmax,[1]; [11],426 ng/mL
same,Tmax,[1]; [11],1 h
same,brain penetration from plasma,[1]; single oral dose of 10 mg/kg,76%
same,IC50,U87,9.7 nM
